Results from patent publication US11117900B2 (Vertex Pharmaceuticals Incorporated, priority 2012, dated 2021).

tested on: HCT116 colorectal cancer cells; assay: Cisplatin sensitization assay (96 h MTS cell viability); type: cell-based; settings: Cisplatin sensitization value;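 also: compound concentration needed to lower the IC50 of Cisplatin alone by a set fold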
Procedure, shortened: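 The MTS viability read, after 1 h with reagent, followed 96 h of co-treatment at 37° C. in 5% CO2. Both compound and cisplatin were titrated 2-fold from a 10 μM top final concentration in a complete concentration matrix on HCT116 cells. Scores +++/++/+ reflect cisplatin sensitization value ranges.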

| SMILES | Cisplatin Sensitization Assay |
| --- | --- |
| Nc1nn2cc(Cl)cnc2c1C(=O)Nc1cnccc1-n1ccnc1 [I-N-29, N-(4-(1H-imidazol-1-yl)pyridin-3-yl)-2-amino-6-chloropyrazolo[1,5-a]pyrimidine-3-carboxamide] | ++ (Compounds with a Cisplatin sensitization value >0.02 μM but <0.2 μM are marked with “++.”) |
| Cc1nc(C(F)(F)F)cn1-c1ccncc1NC(=O)c1c(N)nn2cc(F)cnc12 [I-N-30, 2-amino-6-fluoro-N-(4-(2-methyl-4-(trifluoromethyl)-1H-imidazol-1-yl)pyridin-3-yl)pyrazolo[1,5-a]pyrimidine-3-carboxamide] | ++ (Compounds with a Cisplatin sensitization value >0.02 μM but <0.2 μM are marked with “++.”) |
| Nc1nn2cc(F)cnc2c1C(=O)Nc1cncc(C2CC2)c1N1CCN(C2COC2)CC1 [I-N-32, 2-amino-N-(5-cyclopropyl-4-(4-(oxetan-3-yl)piperazin-1-yl)pyridin-3-yl)-6-fluoropyrazolo[1,5-a]pyrimidine-3-carboxamide] | ++ (Compounds with a Cisplatin sensitization value >0.02 μM but <0.2 μM are marked with “++.”) |
| Nc1nn2cc(F)cnc2c1C(=O)Nc1cnccc1N1CCN(C2CC2)CC1 [I-N-33, 2-amino-N-(4-(4-cyclopropylpiperazin-1-yl)pyridin-3-yl)-6-fluoropyrazolo[1,5-a]pyrimidine-3-carboxamide] | + (Compounds with a Cisplatin sensitization value >0.2 μM but <5 μM are marked with “+.”) |
| CC(C)(C)N1CCN(c2ccncc2NC(=O)c2c(N)nn3cc(Cl)cnc23)CC1 [I-N-34, 2-amino-N-(4-(4-(tert-butyl)piperazin-1-yl)pyridin-3-yl)-6-chloropyrazolo[1,5-a]pyrimidine-3-carboxamide] | ++ (Compounds with a Cisplatin sensitization value >0.02 μM but <0.2 μM are marked with “++.”) |
| CN(C)[C@H]1CCN(c2ccncc2NC(=O)c2c(N)nn3cc(Cl)cnc23)C[C@@H]1O [I-N-35, 2-amino-6-chloro-N-(4-((3S,4S)-4-(dimethylamino)-3-hydroxypiperidin-1-yl)pyridin-3-yl)pyrazolo[1,5-a]pyrimidine-3-carboxamide] | + (Compounds with a Cisplatin sensitization value >0.2 μM but <5 μM are marked with “+.”) |
| CN(C)CC1(O)CCN(c2ccncc2NC(=O)c2c(N)nn3cc(Cl)cnc23)CC1 [I-N-36, 2-amino-6-chloro-N-(4-(4-((dimethylamino)methyl)-4-hydroxypiperidin-1-yl)pyridin-3-yl)pyrazolo[1,5-a]pyrimidine-3-carboxamide] | ++ (Compounds with a Cisplatin sensitization value >0.02 μM but <0.2 μM are marked with “++.”) |
| CN(C)C1CCN(c2ccncc2NC(=O)c2c(N)nn3cc(Cl)cnc23)CC1 [I-N-37, 2-amino-6-chloro-N-(4-(4-(dimethylamino)piperidin-1-yl)pyridin-3-yl)pyrazolo[1,5-a]pyrimidine-3-carboxamide] | ++ (Compounds with a Cisplatin sensitization value >0.02 μM but <0.2 μM are marked with “++.”) |
| Nc1nn2cc(F)cnc2c1C(=O)Nc1cncc(Cl)c1N1CCN2CCN(C3COC3)CC2C1 (stereo not drawn) [I-N-38, 2-amino-N-(5-chloro-4-(8-(oxetan-3-yl)hexahydro-1H-pyrazino[1,2-a]pyrazin-2(6H)-yl)pyridin-3-yl)-6-fluoropyrazolo[1,5-a]pyrimidine-3-carboxamide] | ++ (Compounds with a Cisplatin sensitization value >0.02 μM but <0.2 μM are marked with “++.”) |
| CC(C)N1CCN(c2ccncc2NC(=O)c2c(N)nn3cc(Cl)cnc23)CC1 [I-N-39, 2-amino-6-chloro-N-(4-(4-isopropylpiperazin-1-yl)pyridin-3-yl)pyrazolo[1,5-a]pyrimidine-3-carboxamide] | ++ (Compounds with a Cisplatin sensitization value >0.02 μM but <0.2 μM are marked with “++.”) |
| CN(C)C1CCCN(c2ccncc2NC(=O)c2c(N)nn3cc(Cl)cnc23)C1 (stereo not drawn) [I-N-40, 2-amino-6-chloro-N-(4-(3-(dimethylamino)piperidin-1-yl)pyridin-3-yl)pyrazolo[1,5-a]pyrimidine-3-carboxamide] | ++ (Compounds with a Cisplatin sensitization value >0.02 μM but <0.2 μM are marked with “++.”) |
| CN1CCN(c2c(Cl)cncc2NC(=O)c2c(N)nn3cc(Cl)cnc23)CC1 [I-N-41, 2-amino-6-chloro-N-(5-chloro-4-(4-methylpiperazin-1-yl)pyridin-3-yl)pyrazolo[1,5-a]pyrimidine-3-carboxamide] | +++ (Compounds with a Cisplatin sensitization value of <0.02 μM are marked with “+++.”) |
| CN1CCCN(c2ccncc2NC(=O)c2c(N)nn3cc(Cl)cnc23)CC1 [I-N-43, 2-amino-6-chloro-N-(4-(4-methyl-1,4-diazepan-1-yl)pyridin-3-yl)pyrazolo[1,5-a]pyrimidine-3-carboxamide] | ++ (Compounds with a Cisplatin sensitization value >0.02 μM but <0.2 μM are marked with “++.”) |
| Nc1nn2cc(Cl)cnc2c1C(=O)Nc1cnccc1N1CCn2ccnc2C1 [I-N-44, 2-amino-6-chloro-N-(4-(5,6-dihydroimidazo[1,2-a]pyrazin-7(8H)-yl)pyridin-3-yl)pyrazolo[1,5-a]pyrimidine-3-carboxamide] | ++ (Compounds with a Cisplatin sensitization value >0.02 μM but <0.2 μM are marked with “++.”) |
| CN(C)CC1CCN(c2ccncc2NC(=O)c2c(N)nn3cc(Cl)cnc23)CC1 [I-N-45, 2-amino-6-chloro-N-(4-(4-((dimethylamino)methyl)piperidin-1-yl)pyridin-3-yl)pyrazolo[1,5-a]pyrimidine-3-carboxamide] | ++ (Compounds with a Cisplatin sensitization value >0.02 μM but <0.2 μM are marked with “++.”) |
| COC1(CN(C)C)CCN(c2ccncc2NC(=O)c2c(N)nn3cc(Cl)cnc23)CC1 [I-N-46, 2-amino-6-chloro-N-(4-(4-((dimethylamino)methyl)-4-methoxypiperidin-1-yl)pyridin-3-yl)pyrazolo[1,5-a]pyrimidine-3-carboxamide] | +++ (Compounds with a Cisplatin sensitization value of <0.02 μM are marked with “+++.”) |
| COCC1CN(c2ccncc2NC(=O)c2c(N)nn3cc(Cl)cnc23)CCN1C (stereo not drawn) [I-N-47, 2-amino-6-chloro-N-(4-(3-(methoxymethyl)-4-methylpiperazin-1-yl)pyridin-3-yl)pyrazolo[1,5-a]pyrimidine-3-carboxamide] | ++ (Compounds with a Cisplatin sensitization value >0.02 μM but <0.2 μM are marked with “++.”) |
| Nc1nn2cc(Cl)cnc2c1C(=O)Nc1cnccc1N1CCN(C2CCC2)CC1 [I-N-48, 2-amino-6-chloro-N-(4-(4-cyclobutylpiperazin-1-yl)pyridin-3-yl)pyrazolo[1,5-a]pyrimidine-3-carboxamide] | ++ (Compounds with a Cisplatin sensitization value >0.02 μM but <0.2 μM are marked with “++.”) |
| CN(C)CCN1CCN(c2ccncc2NC(=O)c2c(N)nn3cc(Cl)cnc23)CC1 [I-N-49, 2-amino-6-chloro-N-(4-(4-(2-(dimethylamino)ethyl)piperazin-1-yl)pyridin-3-yl)pyrazolo[1,5-a]pyrimidine-3-carboxamide] | +++ (Compounds with a Cisplatin sensitization value of <0.02 μM are marked with “+++.”) |
| CN1CCN(c2cc(N)ncc2NC(=O)c2c(N)nn3cc(Cl)cnc23)CC1 [I-N-50, 2-amino-N-(6-amino-4-(4-methylpiperazin-1-yl)pyridin-3-yl)-6-chloropyrazolo[1,5-a]pyrimidine-3-carboxamide] | + (Compounds with a Cisplatin sensitization value >0.2 μM but <5 μM are marked with “+.”) |
| CN1CCN(c2cc(Cl)ncc2NC(=O)c2c(N)nn3cc(Cl)cnc23)CC1 [I-N-52, 2-amino-6-chloro-N-(6-chloro-4-(4-methylpiperazin-1-yl)pyridin-3-yl)pyrazolo[1,5-a]pyrimidine-3-carboxamide] | ++ (Compounds with a Cisplatin sensitization value >0.02 μM but <0.2 μM are marked with “++.”) |
| CN1CCN(c2ccncc2NC(=O)c2c(N)nn3cc(Cl)cnc23)CC1(C)C [I-N-53, 2-amino-6-chloro-N-(4-(3,3,4-trimethylpiperazin-1-yl)pyridin-3-yl)pyrazolo[1,5-a]pyrimidine-3-carboxamide] | ++ (Compounds with a Cisplatin sensitization value >0.02 μM but <0.2 μM are marked with “++.”) |
| CC1CN(c2ccncc2NC(=O)c2c(N)nn3cc(Cl)cnc23)CCN1C (stereo not drawn) [I-N-54, 2-amino-6-chloro-N-(4-(3,4-dimethylpiperazin-1-yl)pyridin-3-yl)pyrazolo[1,5-a]pyrimidine-3-carboxamide] | +++ (Compounds with a Cisplatin sensitization value of <0.02 μM are marked with “+++.”) |
| Nc1nn2cc(Cl)cnc2c1C(=O)Nc1cnccc1N1CCCC(N)C1 (stereo not drawn) [I-N-55, 2-amino-N-(4-(3-aminopiperidin-1-yl)pyridin-3-yl)-6-chloropyrazolo[1,5-a]pyrimidine-3-carboxamide] | ++ (Compounds with a Cisplatin sensitization value >0.02 μM but <0.2 μM are marked with “++.”) |
| Nc1nn2cc(Cl)cnc2c1C(=O)Nc1cnccc1N1CCN2CCC1CC2 [I-N-56, N-(4-(1,4-diazabicyclo[3.2.2]nonan-4-yl)pyridin-3-yl)-2-amino-6-chloropyrazolo[1,5-a]pyrimidine-3-carboxamide] | ++ (Compounds with a Cisplatin sensitization value >0.02 μM but <0.2 μM are marked with “++.”) |
| Cc1cncc(NC(=O)c2c(N)nn3cc(Cl)cnc23)c1N1CCN(C)CC1 [I-N-57, 2-amino-6-chloro-N-(5-methyl-4-(4-methylpiperazin-1-yl)pyridin-3-yl)pyrazolo[1,5-a]pyrimidine-3-carboxamide] | +++ (Compounds with a Cisplatin sensitization value of <0.02 μM are marked with “+++.”) |
| Nc1nn2cc(Cl)cnc2c1C(=O)Nc1cnccc1N1CCN(C2COC2)CC1 [I-N-58, 2-amino-6-chloro-N-(4-(4-(oxetan-3-yl)piperazin-1-yl)pyridin-3-yl)pyrazolo[1,5-a]pyrimidine-3-carboxamide] | ++ (Compounds with a Cisplatin sensitization value >0.02 μM but <0.2 μM are marked with “++.”) |
